We go through 53 compounds from patent US10059667B2, “Antidiabetic compounds” (MERCK SHARP & DOHME CORP., priority 2014, dated 2018).

Human GPR40, sequence (O14842 whole entry): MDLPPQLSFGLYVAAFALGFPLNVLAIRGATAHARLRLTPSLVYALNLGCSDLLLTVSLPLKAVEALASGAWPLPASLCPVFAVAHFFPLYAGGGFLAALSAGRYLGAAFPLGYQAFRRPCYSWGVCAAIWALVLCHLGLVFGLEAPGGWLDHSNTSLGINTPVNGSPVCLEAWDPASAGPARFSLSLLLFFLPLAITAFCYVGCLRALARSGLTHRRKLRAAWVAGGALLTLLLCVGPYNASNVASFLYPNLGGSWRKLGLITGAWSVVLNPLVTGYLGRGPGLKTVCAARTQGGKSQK

The experiment addresses Human GPR40 (Homo sapiens (Human), UniProt O14842). The experiment can be described thus: Inositol Phosphate Turnover (IP1) Assay 1, HEK cells stably expressing human GPR40, 3H-inositol SPA. In kind it is cell-based. To be noted: HEK cells stably expressing human GPR40, 96-well. Here is the method:
Human and mouse GPR40 stable cell-lines were generated in CHO cells stably expressing NFAT BLA (Beta-lactamase). A human GPR40 stable cell-line was generated in HEK cells stably expressing the aequorin expressing reporter. The expression plasmids were transfected using lipofectamine (Life Technologies) following manufacturer's instructions. Stable cell-lines were generated following drug selection.
The assay was performed in 96-well format. HEK cells stably expressing human GPR40 were plated to be 60-80% confluent within 72 h. After 72 h, the plates were aspirated and the cells washed with inositol-free DMEM (ICN). The wash media was replaced with 150 μL of 3H-inositol labeling media (inositol-free media containing 0.4% human albumin or 0.4% mouse albumin, 1× pen/strep antibiotics, glutamine, 25 mM HEPES to which was added 3H-myo-inositol NEN #NET114A 1 mCi/mL, 25 Ci/mmol diluted 1:150 in loading media with a final specific radioactivity of 1 μCi/150 μL). Alternatively, the human and mouse albumin can be added after the overnight labeling step before the addition of LiCl.
The assay was typically run the next day after 18 h labeling. On the day of the assay, 5 μL of 300 mM LiCl was added to all wells and incubated at 37 degrees for 20 min. 0.75 μL of each compound was added and incubated with the cells for 60 min at 37 degrees. The media was then aspirated off and the assay terminated with the addition of 60 μL 10 mM formic acid. The cells were lysed for 60 min at room temperature. 15-30 μL of lysate was mixed with 70 μL/1 mg YSi SPA beads (Amersham) in clear bottom Isoplates. The plates were shaken for 2 h at room temperature. Beads were allowed to settle and the plates were counted in the Wallac Microbeta.
`C[C@H](C(=O)O)[C@H](c1cccc(OCC2CC(Oc3ccccc3Cl)C2)c1)C1CC1` (single isomer, unassigned) [Example 134] gave an EC50 of 85 nM.
Compound `COc1ccc([C@H]2C[C@@H]2COc2cccc([C@H](C3CC3)[C@H](C)C(=O)O)c2)cc1` [Example 159] displayed an EC50 of 472 nM.
Then `C[C@H](C(=O)O)[C@H](c1cccc(OC[C@H]2C[C@@H]2c2cc(OC(F)(F)F)ccc2F)c1)C1CC1` [Example 145], with 223 nM; and `COc1ccc(OC)c([C@H]2C[C@@H]2COc2cccc([C@H](C3CC3)[C@H](C)C(=O)O)c2)c1` [Example 139], with 188 nM.
Then `C[C@H](C(=O)O)[C@H](c1cccc(OCC2CC(Oc3ccccc3)C2)c1)C1CC1` (stereo partly drawn) [Example 92, (2S,3R)-3-cyclopropyl-2-methyl-3-(3-((3-phenoxycyclobutyl)methoxy)phenyl)-propanoic acid], with 208 nM.
Under `C[C@H](C(=O)O)[C@H](c1cccc(OCC2CC(Oc3ccnn3C)C2)c1)C1CC1` (some centres unmarked) [Example 101] stands 7220 nM; under `COc1ccc(F)c([C@@H]2C[C@H]2COc2cccc([C@H](C3CC3)[C@H](C)C(=O)O)c2)c1` [Example 75], 34 nM; under `C[C@H](C(=O)O)[C@H](c1cccc(OCC2CC(Oc3ccccc3-c3ccccc3)C2)c1)C1CC1` (some centres unmarked) [Example 132], 150 nM.
`C[C@H](C(=O)O)[C@H](c1cccc(OCC2CC(Oc3ccc4c(c3)COC4=O)C2)c1)C1CC1` (single isomer, unassigned) [Example 107] returned an EC50 of 3450 nM.
Then `CCOc1ccccc1OC1CC(COc2cccc([C@H](C3CC3)[C@H](C)C(=O)O)c2)C1` (some centres unmarked) [Example 112], with 109 nM.
Then `C[C@H](C(=O)O)[C@H](c1cccc(OCC2CC(Oc3ccnc4c3OCCO4)C2)c1)C1CC1` (some centres unmarked) [Example 111], with 3100 nM; and `C[C@H](C(=O)O)[C@H](c1cccc(OCC2CC(Oc3ccccc3Cl)C2)c1)C1CC1` (single isomer, unassigned) [Example 133], with 152 nM; and `C[C@H](C(=O)O)[C@H](c1cccc(OCC2CC(Oc3ccn[nH]3)C2)c1)C1CC1` (single isomer, unassigned) [Example 98], with 1480 nM.
Then `C[C@H](C(=O)O)[C@H](c1cccc(OC[C@H]2C[C@@H]2c2ccc(Cl)c(C(F)(F)F)c2)c1)C1CC1` [Example 156], with 355 nM.
As for `COc1cccc(C2CC(COc3cccc([C@H](C4CC4)[C@H](C)C(=O)O)c3)C2)c1` (some centres unmarked) [Example 85], the midpoint of the response, the EC50, lay at 35 nM.
As to `C[C@H](C(=O)O)[C@H](c1cccc(OCC2CC(Oc3cccnc3)C2)c1)C1CC1` (some centres unmarked) [Example 110], the EC50 came to 1960 nM.
Compound `COc1ccc(C)cc1OC1CC(COc2cccc([C@H](C3CC3)[C@H](C)C(=O)O)c2)C1` (single isomer, unassigned) [Example 117] returned an EC50 of 50 nM.
Under `COc1ncc([C@H]2C[C@@H]2COc2cccc([C@H](C3CC3)[C@H](C)C(=O)O)c2)cc1F` [Example 149] stands 802 nM; under `C[C@H](C(=O)O)[C@H](c1cccc(OCC2CC(Oc3ccccn3)C2)c1)C1CC1` (some centres unmarked) [Example 102], 643 nM; under `C[C@H](C(=O)O)[C@H](c1cccc(OCC2CC(Oc3cccc(-c4ccccc4)c3)C2)c1)C1CC1` (single isomer, unassigned) [Example 121], 561 nM.
Then `C[C@H](C(=O)O)[C@H](c1cccc(OCC2CCN(c3cc(C(F)(F)F)ccn3)CC2)c1)C1CC1` [Example 39], with 218 nM; and `C[C@H](C(=O)O)[C@H](c1cccc(OC[C@H]2C[C@@H]2c2cccnc2)c1)C1CC1` [Example 147], with 4440 nM; and `COc1cccc(OC2CC(COc3cccc([C@H](C4CC4)[C@H](C)C(=O)O)c3)C2)c1` (stereo partly drawn) [Example 64, (2S,3R)-3-Cyclopropyl-3-(3-((3-(3-methoxyphenoxy)cyclobutyl)methoxy)phenyl)-2-methylpropanoic acid], with 60 nM.
Then `C[C@H](C(=O)O)[C@H](c1cccc(OC[C@H]2C[C@@H]2c2cc(OC(F)(F)F)ccc2Cl)c1)C1CC1` [Example 146], with 111 nM; and `C[C@H](C(=O)O)[C@H](c1cccc(OCC2CC(Oc3ccccc3F)C2)c1)C1CC1` (some centres unmarked) [Example 94], with 110 nM; and `C[C@H](C(=O)O)[C@H](c1cccc(OCC2CC(Oc3ccc4c(c3)COC4=O)C2)c1)C1CC1` (single isomer, unassigned) [Example 108], with 1970 nM.
`COc1cc([C@@H]2C[C@H]2COc2cccc([C@H](C3CC3)[C@H](C)C(=O)O)c2)c(F)cn1` [Example 76] came in with an EC50 of 138 nM.
Under `C[C@H](C(=O)O)[C@H](c1cccc(OC[C@H]2C[C@@H]2c2cc(Cl)ccc2F)c1)C1CC1` [Example 152] stands 89 nM; under `COc1cc(OC2CC(COc3cccc([C@H](C4CC4)[C@H](C)C(=O)O)c3)C2)c(F)cn1` (some centres unmarked) [Example 106], 54 nM; under `Cc1cc(OC2CC(COc3cccc([C@H](C4CC4)[C@H](C)C(=O)O)c3)C2)n(C)n1` (some centres unmarked) [Example 97], 7240 nM.
Under `C[C@H](C(=O)O)[C@H](c1cccc(OC[C@H]2C[C@@H]2c2cccc(OC3CC3)c2)c1)C1CC1` [Example 138] stands 74 nM.
The compound `C[C@H](C(=O)O)[C@H](c1cccc(OC[C@H]2C[C@@H]2c2ccc(F)c(C(F)(F)F)c2)c1)C1CC1` [Example 144] yielded a half-maximal effective concentration (EC50) of 385 nM.
Then `CCC(c1cc(C(F)(F)F)ccc1C(F)(F)F)N1CC(COc2cccc([C@H](C3CC3)[C@H](C)C(=O)O)c2)C1` (some centres unmarked) [Example 36], with 12 nM.
In turn, `C[C@H](C(=O)O)[C@H](c1cccc(OC[C@H]2C[C@@H]2c2cc(C(F)(F)F)ccc2C(F)(F)F)c1)C1CC1` [Example 155] registered an EC50 of 316 nM.
Under `COc1cc(F)cc([C@H]2C[C@@H]2COc2cccc([C@H](C3CC3)[C@H](C)C(=O)O)c2)c1` [Example 141] stands 109 nM; under `COc1cc(C2CC(COc3cccc([C@H](C4CC4)[C@H](C)C(=O)O)c3)C2)ccn1` (single isomer, unassigned) [Example 88], 930 nM; under `COc1cc(F)c([C@H]2C[C@@H]2COc2cccc([C@H](C3CC3)[C@H](C)C(=O)O)c2)cc1F` [Example 153], 325 nM.
Then `COc1cccc(C[C@H]2C[C@@H]2COc2cccc([C@H](C3CC3)[C@H](C)C(=O)O)c2)c1` [Example 70], with 146 nM; and `COc1ccc(OC2CC(COc3cccc([C@H](C4CC4)[C@H](C)C(=O)O)c3)C2)cc1` (some centres unmarked) [Example 125], with 565 nM; and `COc1ccccc1OC1CC(COc2cccc([C@H](C3CC3)[C@H](C)C(=O)O)c2)C1` (some centres unmarked) [Example 128], with 72 nM.
Compound `C[C@H](C(=O)O)[C@H](c1cccc(OCC2CCN(c3ncccc3C(F)(F)F)CC2)c1)C1CC1` [Example 38] returned an EC50 of 13 nM.
Then `C[C@H](C(=O)O)[C@H](c1cccc(OC[C@H]2C[C@@H]2c2cc(F)ccc2F)c1)C1CC1` [Example 151], with 90 nM; and `CCOc1ccc(OC2CC(COc3cccc([C@H](C4CC4)[C@H](C)C(=O)O)c3)C2)cc1` (some centres unmarked) [Example 113], with 1210 nM; and `COc1ccnc(OC2CC(COc3cccc([C@H](C4CC4)[C@H](C)C(=O)O)c3)C2)c1` (single isomer, unassigned) [Example 105], with 56 nM.
Under `C[C@H](C(=O)O)[C@H](c1cccc(OCC2CC(Oc3ccn[nH]3)C2)c1)C1CC1` (single isomer, unassigned) [Example 99] stands 2670 nM.
Under `COc1cccc(OC2CC(COc3cccc([C@H](C4CC4)[C@H](C)C(=O)O)c3)C2)c1` (single isomer, unassigned) [Example 65] stands 22 nM; under `C[C@H](C(=O)O)[C@H](c1cccc(OCC2CC(Oc3cccc(O)c3)C2)c1)C1CC1` (single isomer, unassigned) [Example 122], 597 nM; under `C[C@H](C(=O)O)[C@H](c1cccc(OCC2CCN(c3cccc(C(F)(F)F)n3)CC2)c1)C1CC1` [Example 37], 177 nM.
On to `COc1cccc([C@H]2C[C@@H]2COc2cccc([C@H](C3CC3)[C@H](C)C(=O)O)c2)c1F` [Example 140], for which the EC50 was 225 nM.
Under `C[C@H](C(=O)O)[C@H](c1cccc(OCC2CC(Oc3cccc(C(F)(F)F)c3)C2)c1)C1CC1` (some centres unmarked) [Example 136] stands 262 nM.
Then `COc1cccc(C[C@@H]2C[C@H]2COc2cccc([C@H](C3CC3)[C@H](C)C(=O)O)c2)c1` [Example 71], with 187 nM.
Then `COc1ccc(OC2CC(COc3cccc([C@H](C4CC4)[C@H](C)C(=O)O)c3)C2)cc1` (some centres unmarked) [Example 124], with 577 nM; and `C[C@H](C(=O)O)[C@H](c1cccc(OCC2CC(c3ccccc3)C2)c1)C1CC1` (some centres unmarked) [Example 72], with 201 nM.
